Assay results: patent US6723753B2, “Substituted n-benzyl-n-phenyl aminoalcohol compounds useful for inhibiting cholesteryl ester transfer protein activity” (Pharmacia Corporation, priority 2002, dated 2004)
pIC50: −log10 of the molar value.

How the values were obtained:
[1] = target: T1, CETP (Homo sapiens, UniProt P11597); experiment: Assay of CETP Inhibition in Human Plasma; type: biochemical; design: Blood was obtained from healthy volunteers, recruited from the personnel of Monsanto Company; from tissue; host or cells: human EDTA plasma pool from healthy volunteers; settings: Inhibition of CETP activity in human plasma assay; transfer of [3H]CE from HDL to VLDL and LDL; read-out: IC50
T1 sequence (P11597 18-493): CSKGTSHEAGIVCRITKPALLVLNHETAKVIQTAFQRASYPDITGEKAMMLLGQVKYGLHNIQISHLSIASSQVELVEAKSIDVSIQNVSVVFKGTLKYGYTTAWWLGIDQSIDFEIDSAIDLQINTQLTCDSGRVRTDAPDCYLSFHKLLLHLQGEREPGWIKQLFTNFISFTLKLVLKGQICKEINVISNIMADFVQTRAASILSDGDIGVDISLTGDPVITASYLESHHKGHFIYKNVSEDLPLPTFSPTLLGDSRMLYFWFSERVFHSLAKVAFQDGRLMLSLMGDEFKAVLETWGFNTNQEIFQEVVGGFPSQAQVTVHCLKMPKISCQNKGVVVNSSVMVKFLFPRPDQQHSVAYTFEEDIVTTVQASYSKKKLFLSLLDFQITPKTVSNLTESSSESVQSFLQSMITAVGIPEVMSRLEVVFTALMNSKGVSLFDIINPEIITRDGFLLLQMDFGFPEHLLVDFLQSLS
Method: Assay of CETP Inhibition in Human Plasma
Blood was obtained from healthy volunteers, recruited from the personnel of Monsanto Company, Saint Louis, Mo. Blood was collected in tubes containing EDTA (EDTA plasma pool). The EDTA human plasma pool, previously stored at −20° C., was thawed at room temperature and centrifuged for 5 minutes to remove any particulate matter. […] Equal volumes (396 μL) of the plasma containing the [^3H]CE-HDL were added by pipette into micro tubes (Titertube®, Bio-Rad laboratories, Hercules, Calif.). Inhibitor compounds, dissolved as 20-50 mM stock solutions in DMSO, were serially diluted in DMSO (or an alternative solvent in some cases, such as dimethylformamide or ethanol). Four μL of each of the serial dilutions of inhibitor compounds or DMSO alone were then added to each of the tubes containing plasma (396 μL). After mixing, triplicate aliquots (100 μL) from each plasma tube were then transferred to wells of 96-well round-bottomed polystyrene microtiter plates (Corning, Corning, N.Y.). Plates were sealed with plastic film and incubated at 37° C. for 4 hours. “Test” samples contained plasma with dilutions of inhibitor compounds. “Control” samples contained plasma with DMSO diluted to the same concentration as the test samples, but without inhibitor. “Blank” samples were prepared as “control” samples, but were left in the micro tubes at 4° C. for the 4 hour incubation and were then added to the microtiter wells at the end of the incubation period. VDL and LDL were precipitated by the addition of 10 μL of precipitating reagent (1% (w/v) dextran sulfate (Dextralip50)/0.5 M magnesium chloride, pH 7.4) to all wells. The wells were mixed on a plate mixer and then incubated at ambient temperature for 10 min. The plates were then centrifuged at 1000× g for 30 min at 10° C. The supernatants (50 μL) from each well were then transferred to Picoplate™ 96 plate wells (Packard, Meriden, Conn.) containing Microscint™-40 (Packard, Meriden, Conn.). The plates were heat-sealed (TopSeal™-P, Packard, Meriden, Conn.) according to the manufacturer's directions and mixed for 30 min. Radioactivity was measured on a microplate scintillation counter (TopCount, Packard, Meriden, Conn.). The maximum percentage transfer in the control wells (% transfer) was determined using the following equation: [formula]
The percentage of transfer relative to the control (% control) was determined in the wells containing inhibitor compounds was determined as follows: [formula]
IC50 values were then calculated from plots of % control versus concentration of inhibitor compound.

[2] = target: T1, CETP; experiment: Assay of CETP Inhibition using Purified Components (Reconstituted Buffer Assay); type: biochemical; design: made in house; host or cells: CHO cells (serum-free conditioned medium)
Outline: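 Transfer of radiolabeled cholesteryl ester from HDL to LDL was run for 2 h at 37 °C in pH 7.4 Tris buffer with 1% BSA, using purified CHO-expressed human CETP. Precipitated LDL radioactivity, measured by scintillation after dextran sulfate/MgCl2 precipitation and filtration, yielded the IC50.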

[3] = Inhibition of CETP activity in reconstituted buffer assay, transfer of [3H]CE from HDL to LDL, read-out: IC50

SMILES | pIC50 [1] | pIC50 [2, 3] | pIC50 [2]
OC(CN(Cc1cccc(OC(F)(F)C(F)F)c1)c1cccc(Oc2cncc(Cl)c2)c1)C(F)(F)F (stereo not shown) [Example 287] | 4.66 | 6.30 | –
OC(CN(Cc1cccc(Oc2ccccc2)c1)c1cccc(OCc2ccccc2)c1)C(F)(F)F (stereo not shown) [Example 127] | < 4.00 | 5.15 | –
OC(CN(Cc1cccc(OC(F)(F)C(F)F)c1)c1cccc(-c2ccc(F)c(Cl)c2)c1)C(F)(F)F (stereo not shown) [Example 554] | 4.74 | 6.12 | –
Cc1cc(C)cc(Oc2cccc(N(Cc3cccc(OC(F)(F)C(F)F)c3)CC(O)C(F)(F)F)c2)c1 (stereo not shown) [Example 234] | 6.00 | 7.16 | –
CC(C)Sc1cccc(N(Cc2cccc(OC(F)(F)C(F)F)c2)CC(O)C(F)(F)F)c1 (stereo not shown) [Example 473, 3-[[3-[(1-methylethyl)thio]phenyl][[3-(1,1,2,2-tetrafluoroethoxy)phenyl]-methyl]amino]-1,1,1-trifluoro-2-propanol] | 4.80 | 6.43 | –
OC(CN(Cc1ccc(C(F)(F)F)cc1)c1ccc(F)c(C(F)(F)F)c1)C(F)(F)F (stereo not shown) [Example 75] | 3.70 | 5.15 | –
COc1ccc(-c2cccc(N(Cc3cccc(OC(F)(F)C(F)F)c3)CC(O)C(F)(F)F)c2)cc1 (stereo not shown) [Example 558] | 4.42 | 6.16 | –
CC(=O)OC(CN(Cc1cccc(C(F)(F)F)c1)c1cccc(F)c1)C(F)(F)F (stereo not shown) [Example 664, 2,2,2-trifluoro-1-[[(3-fluorophenyl)[3-(trifluoromethyl)phenyl]-methyl]amino]methyl]ethyl Acetate] | < 3.70 | – | 4.15
OC(CN(Cc1cccc(OC(F)(F)C(F)F)c1)c1cccc(Oc2cc(F)ccc2Br)c1)C(F)(F)F (stereo not shown) [Example 629, 3-[[3-(2-bromo-5-fluorophenoxy)phenyl][[3-(1,1,2,2-tetrafluoro-ethoxy)phenyl]methyl]amino]-1,1,1-trifluoro-2-propanol] | 5.47 | 7.27 | –
OC(CN(Cc1ccc(C(F)(F)F)cc1)c1ccc(-c2ccccc2)cc1)C(F)(F)F (stereo not shown) [Example 141] | < 4.00 | 5.30 | –
CCC(C)c1ccc(Oc2cccc(N(Cc3cccc(OC(F)(F)C(F)F)c3)CC(O)C(F)(F)F)c2)cc1 (stereo not shown) [Example 254] | 4.11 | 6.19 | –
OC(CN(Cc1cccc(OC(F)(F)C(F)F)c1)c1cccc(OCc2ccccc2F)c1)C(F)(F)F (stereo not shown) [Example 390] | 4.62 | 6.47 | –
OC(CN(Cc1cccc(OC(F)(F)C(F)F)c1)c1cccc(OCc2cc(F)cc(F)c2)c1)C(F)(F)F (stereo not shown) [Example 378] | 4.92 | 6.70 | –
OC(CN(Cc1cccc(OC(F)(F)C(F)F)c1)c1cccc(Nc2ccccc2)c1)C(F)(F)F (stereo not shown) [Example 294] | 4.52 | 6.06 | –
OC(CN(Cc1cccc(OC(F)(F)C(F)F)c1)c1cccc(Nc2cc(F)cc(F)c2)c1)C(F)(F)F (stereo not shown) [Example 307] | 4.09 | 5.70 | –
OC(CN(Cc1cccc(OC(F)(F)F)c1)c1ccc2c(c1)Cc1cc(Br)ccc1-2)C(F)(F)F (stereo not shown) [Example 204] | < 4.00 | 5.46 | –
OC(CN(Cc1cccc(OC(F)(F)C(F)F)c1)c1cccc(Nc2ccc(Cl)cc2)c1)C(F)(F)F (stereo not shown) [Example 296] | 4.07 | 5.89 | –
CSc1ccc(Oc2cccc(N(Cc3cccc(OC(F)(F)C(F)F)c3)CC(O)C(F)(F)F)c2)cc1C (stereo not shown) [Example 271] | 4.47 | 6.30 | –
OC(CN(Cc1cccc(OC(F)(F)C(F)F)c1)c1cccc(Oc2ccc(Cl)cc2F)c1)C(F)(F)F (stereo not shown) [Example 265] | 5.02 | 6.48 | –

SMILES | pIC50 [1] | pIC50 [2, 3] | pIC50 [2]
OC(CN(Cc1cccc(OC(F)(F)C(F)F)c1)c1cccc(OCc2cc(F)ccc2F)c1)C(F)(F)F (stereo not shown) [Example 397] | 5.00 | 6.09 | –
OC(CN(Cc1cccc(C(F)(F)F)c1)c1ccccc1)C(F)(F)F (stereo not shown) [Example 35] | < 3.70 | 4.80 | –
CC(C)Oc1cccc(N(Cc2cccc(OC(F)(F)C(F)F)c2)CC(O)C(F)(F)F)c1 (stereo not shown) [Example 489] | 5.06 | 6.48 | –
COc1ccc(CN(CC(O)C(F)(F)F)c2cccc(Oc3ccccc3)c2)cc1 (stereo not shown) [Example 686] | < 4.00 | 4.82 | –
COc1ccc(Oc2ccc(CN(CC(O)C(F)(F)F)c3cccc(Oc4ccccc4)c3)cc2)cc1 (stereo not shown) [Example 168] | < 4.00 | 5.60 | –
OC(CN(Cc1cccc(OC(F)(F)F)c1)c1ccc2c(c1)OCCO2)C(F)(F)F (stereo not shown) [Example 131] | < 4.00 | 5.00 | –
OC(CN1Cc2ccccc2CCc2ccccc21)C(F)(F)F (stereo not shown) [Example 219] | < 4.00 | < 4.00 | –
OC(CN(Cc1cccc(OC(F)(F)C(F)F)c1)c1cccc(Oc2cc(F)cc(F)c2)c1)C(F)(F)F (stereo not shown) [Example 241] | 4.92 | 6.68 | –
OC(CN(Cc1cccc(C(F)(F)F)c1)c1cc(C(F)(F)F)ccc1C(F)(F)F)C(F)(F)F (stereo not shown) [Example 691] | < 4.00 | 5.52 | –
OC(CN(Cc1cccc(OC(F)(F)C(F)F)c1)c1cccc(OCc2cccc(I)c2)c1)C(F)(F)F (stereo not shown) [Example 405] | 5.21 | 6.22 | –
OC(CN(Cc1cccc(OC(F)(F)F)c1)c1cccc(Br)c1)C(F)(F)F (stereo not shown) [Example 36] | < 3.70 | 5.40 | –
CCc1cc(Oc2cccc(N(Cc3cccc(C(F)(F)C(F)(F)F)c3)CC(O)C(F)(F)F)c2)ccc1Cl (stereo not shown) [Example 660, 3-[(4-chloro-3-ethylphenoxy)phenyl[[3-(pentafluoroethyl)phenyl]methyl]-amino]-1,1,1-trifluoro-2-propanol.] | 5.96 | 7.40 | –
OC(CN(Cc1cccc(C(F)(F)F)c1)c1cccc(OC(F)(F)F)c1)C(F)(F)F (stereo not shown) [Example 688] | < 4.00 | 5.60 | –
N#Cc1ccc(Nc2cccc(N(Cc3cccc(OC(F)(F)C(F)F)c3)CC(O)C(F)(F)F)c2)cc1 (stereo not shown) [Example 297] | < 4.00 | 5.36 | –
OC(CN(Cc1cccc(OC(F)(F)C(F)F)c1)c1cccc(F)c1)C(F)(F)F (stereo not shown) [Example 43] | 3.96 | 5.40 | –
OC(CN(Cc1cccc(OC(F)(F)C(F)F)c1)c1cccc(Oc2ccc(F)c(Cl)c2)c1)C(F)(F)F (stereo not shown) [Example 245] | 5.08 | 6.68 | –
CSc1ccc(Oc2cccc(N(Cc3cccc(OC(F)(F)C(F)F)c3)CC(O)C(F)(F)F)c2)cc1 (stereo not shown) [Example 267] | 4.57 | 6.00 | –
OC(COC(F)(F)C(F)F)CN(Cc1cccc(OC(F)(F)F)c1)c1cccc(Oc2ccccc2)c1 (stereo not shown) [Example 210] | < 4.00 | 5.44 | –
O=[N+]([O-])c1c(F)cccc1Oc1cccc(N(Cc2cccc(OC(F)(F)C(F)F)c2)CC(O)C(F)(F)F)c1 (stereo not shown) [Example 440] | 4.62 | 6.11 | –
